The record followed here is PubChem BioAssay AID179 (DTP/NCI, 2004).

Active and inactive are the calls of the source.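 Rule for the calls: active = compounds giving half or more protection of infected cells from virus-caused growth loss, again on retest; inactive = the rest.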

The test system of this assay is CEM cells HIV-1 protection, formazan growth assay. In words: NCI AIDS Antiviral Assay. The following applies: for IC50: measured here: growth of uninfected CEM cells. Summed up:
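Human CEM cells, uninfected and HIV-1-infected, exposed to five drug concentrations; growth measured by soluble formazan assay and scored as percent protection from infection, with protecting compounds retested.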

`Nc1nc(Cl)cc(OCC2(O)CC(COC(=O)c3ccccc3)C2)n1` (stereo not drawn): the EC50 (in general, the concentration that produces a half-maximal response) was over 200 µM and the IC50 (as a rule, the midpoint of a concentration-inhibition curve) was 60.3 µM.

For the compound `OCCCCCNc1ccnc2cc(Cl)ccc12`, the EC50 was over 832 µM and the IC50 stood at 47.9 µM.

In the case of `COc1cccc(CC2Cc3ccccc3CC(=O)N2)c1` (stereo not drawn), the EC50 is over 200 µM and the IC50 was 38 µM.

As for `COc1cc(C(c2ccccc2)N2C(=O)CC[C@H]2C(=O)O)cc(OC)c1OC` (stereo partly drawn), the EC50 was over 200 µM and the IC50 was over 200 µM.

`O=c1[nH]c(=O)n(C2CC(O)C(CO)O2)cc1OCCCc1ccccc1` (stereo not drawn): the EC50 is over 200 µM and the IC50 is over 200 µM.

`O=C1C[C@@H]2OC3=C(C(=O)CCC3)[C@@H]2O1`: the EC50 is over 1290 µM and the IC50 turned out to be 7.24 µM.

As for `CC/C=N\N1C(N)=C(C#N)C(C#N)(C#N)C1CC` (stereo not drawn), the EC50 was over 200 µM and the IC50 came out at 64.6 µM.

Turning to `CCCCCCC(=O)c1c(O)c2ccccc2oc1=O`, the EC50 was over 200 µM and the IC50 was found to be 29.5 µM.

In the case of `NC1=NC(=O)[C@H](CSCc2ccccc2)N1C(=O)OCc1ccccc1`, the EC50 is over 200 µM and the IC50 was over 200 µM.

Consider `COC(=O)C1=C(\N2CCOCC2)CCCCC/C=C\1C(=O)OC`, for which the EC50 was over 776 µM and the IC50 amounted to 513 µM.

Regarding `C=CCNC(=S)N1CC(C)C(=O)Nc2cc(Cl)ccc21` (stereo not drawn), the EC50 is over 200 µM and the IC50 is over 200 µM.

Consider `CC1(C)OC2CC3CC(OC3=O)C2O1` (stereo not drawn), for which the EC50 is over 832 µM and the IC50 was over 832 µM.

As for `OC(COc1ccc2ccccc2c1)COc1ccc2ccccc2c1`, the EC50 was over 200 µM and the IC50 turned out to be 138 µM.

Regarding `O=Nc1c(-c2ccc(Cl)cc2)nc2ncccn12`, the EC50 was over 200 µM and the IC50 was 38 µM.

`OC1OC(c2ccc[nH]2)C(F)(F)C(F)(F)C1(F)F` (stereo not drawn): the EC50 was over 200 µM and the IC50 came to 67.6 µM.

`Cc1cc2c3c(c1)CCCN3CCC2`: the EC50 is over 200 µM and the IC50 was over 200 µM.

As for `Cc1ccc(S(=O)(=O)Sc2nnnn2-c2ccccc2)cc1`, the EC50 is over 15.8 µM and the IC50 was over 15.8 µM.

On to `Cc1cc(-c2ccc(N=Nc3c(S(=O)(=O)O)cc4cc(S(=O)(=O)O)cc(N)c4c3O)c(C)c2)ccc1N=Nc1c(S(=O)(=O)O)cc2cc(S(=O)(=O)O)cc(N)c2c1O`, for which the EC50 was 34.7 µM and the IC50 is 132 µM.

With `O=c1[nH]nc(Cc2ccccc2)n1C1CCCC1`, the EC50 was over 200 µM and the IC50 was over 200 µM.

Turning to `Cc1ncc2c(=O)c3c(oc2n1)c1ccccc1n3Cc1ccccc1`, the EC50 was over 200 µM and the IC50 was over 200 µM.

On to `COC(=O)[C@H]1CO[C@@H](C(C)(C)C)N1C(=O)N1C=CC(=O)C[C@@H]1C`, for which the EC50 is over 200 µM and the half-maximal inhibitory concentration (IC50) is over 200 µM.

Consider `O=C1[C@H](c2ccccc2)C2c3ccccc3CCN12` (stereo partly drawn), for which the EC50 was over 200 µM and the IC50 amounted to 97.7 µM.

On to `CC(NCCCNC(C)C(=O)O)C(=O)O` (stereo not drawn), for which the EC50 was over 661 µM and the IC50 was over 661 µM.

In the case of `CCN(c1cccc(NC(=S)Nc2ccccc2N(CC)c2cc(-c3ccccc3)no2)c1)c1cc(-c2ccccc2)no1`, the EC50 was over 200 µM and the IC50 is over 200 µM.

With `O=C1CCC(=O)N1Cc1ccccc1N=[N+]([O-])c1ccccc1CN1C(=O)CCC1=O`, the result was inactive and the IC50 was over 200 µM.

Consider `O=c1[nH]nc(Cc2ccccc2)n1/N=C/c1ccncc1`, for which the EC50 is 72.4 µM and the IC50 was 158 µM.

In the case of `CCOC(C(=O)N(C)CCN(C)CCc1ccccc1)(c1ccccc1)c1ccccc1`, the EC50 was over 200 µM and the IC50 turned out to be 37.2 µM.

With `CCOC(=O)Cc1ccc2c(c1)sc1nc(-c3ccc(OC)cc3)cn12`, the EC50 was over 200 µM and the IC50 was 60.3 µM.

As for `COc1ccc(C2c3cc(OC)c(OC)cc3C(Cc3ccc([N+](=O)[O-])cc3)C2c2ccc([N+](=O)[O-])cc2)cc1OC` (stereo not drawn), the EC50 is over 2.51 µM and the IC50 was over 2.51 µM.

On to `COC(=O)[C@]1(C)CCCC2(C)C3=C(CCC21)CC1(CC3)SCCS1` (stereo partly drawn), for which the EC50 is over 186 µM and the IC50 came to 74.1 µM.

`Oc1ccccc1-n1nc2ccc3nonc3c2n1`: the EC50 was over 200 µM and the IC50 was over 200 µM.

Consider `CSc1c(C#N)c(O)n(-c2ccc(Cl)cc2)c(=O)c1C#N`, for which the EC50 was over 200 µM and the IC50 is 33.1 µM.

Turning to `C/C(=N\NS(=O)(=O)c1ccc([N+](=O)[O-])cc1)c1ccc[n+]([O-])n1`, the result was inactive.

Take `CN(CCc1ccccn1)C(=S)N/N=C(\c1ccccc1)c1ccccn1`: the EC50 was over 0.2 µM and the IC50 is 0.0132 µM.

As to `CCCCNC(=S)N/N=C/c1cccc(C)n1`, the EC50 is over 200 µM and the half-maximal inhibitory concentration (IC50) is 12 µM.

`CCCCCCOC(=O)c1ccc(NC(=O)CN(CC)CC)cc1`: the EC50 is over 200 µM and the IC50 came to 37.2 µM.

With `CCCNC1=C(C(=O)OCC)C(=O)CO1`, the EC50 is over 33.9 µM and the IC50 is over 33.9 µM.

For `CC1=C(CC2C(=O)N(c3ccccc3)S(=O)(=O)NC2C)C(=O)N(c2ccccc2)S(=O)(=O)N1C` (stereo not drawn), the EC50 was over 490 µM and the IC50 is 16.6 µM.

Regarding `O=C1OC(=O)C2C3CC(C4N=NN(c5ccccc5)C34)C12` (stereo not drawn), the EC50 is over 200 µM and the IC50 was over 200 µM.

As for `O=P(O)(O)C(CSc1ccccc1)P(=O)(O)O`, the outcome was inactive.

As for `C/C(=C\C(=O)Nc1ccc2n[nH]nc2c1)Nc1ccc2n[nH]nc2c1`, the outcome was inactive.

Turning to `O=c1ccn([C@@H]2C=C(CO)[C@@H](O)[C@H]2O)c(=O)[nH]1`, the EC50 is over 200 µM and the IC50 was over 200 µM.

With `CC(=O)Nc1c(S(=O)(=O)c2ccccc2)c(C)c(C)n1CCN(C)C`, the EC50 was over 200 µM and the IC50 was over 200 µM.

Turning to `CC(C)OP(=O)(OC(C)C)C(C(C)C)N(C)/C(N)=N\C1=NC(C(F)(F)F)(C(F)(F)F)N=C(C(C(F)(F)F)C(F)(F)F)O1` (stereo not drawn), the EC50 is over 200 µM and the IC50 amounted to 0.0631 µM.

`C#CCC(O)c1ccccc1C(O)CC#C` (stereo not drawn): the outcome was inactive.

On to `CCn1c(SCC(=O)NNC(=S)Nc2ccc(F)cc2)nc2ccccc2c1=O`, for which the EC50 is over 200 µM and the IC50 worked out at 129 µM.

With `C/C=C/[C@@]1(OC(=O)c2ccccc2)C[C@@H]2CCCC[C@@H]21`, the result was inactive.

As for `CNS(=O)(=O)NNS(=O)(=O)c1ccc(Cl)cc1`, the EC50 is over 120 µM and the IC50 was over 120 µM.

Turning to `CCc1c(Cc2ccccc2)n(COCC[Se]c2ccccc2)c(=O)[nH]c1=O`, the EC50 is 4.27 µM and the IC50 turned out to be 28.8 µM.

Take `C[C@@H](c1ccccc1)C(CC#N)[C@H]1CCC[C@]1(O)C#Cc1ccc2c(c1)OCO2` (stereo partly drawn): the EC50 is over 200 µM and the half-inhibitory concentration (IC50) was 11.5 µM.

For the compound `Cc1cc(SCC(=O)c2ccccc2[N+](=O)[O-])cc(C)[o+]1`, the EC50 is over 200 µM and the 50% inhibitory concentration (IC50) is 77.6 µM.

With `C/C([O-])=C\[P+](c1ccccc1)(c1ccccc1)c1ccccc1`, the EC50 is over 200 µM and the IC50 was found to be 105 µM.

`COC(=O)C(=O)C(C(=O)C(=O)Nc1cc([N+](=O)[O-])ccc1[N+](=O)[O-])c1nc2ccc(C(=O)c3ccccc3)cc2[nH]c1=O` (stereo not drawn): the EC50 was over 158 µM and the IC50 is 83.2 µM.

As to `COc1nc(NC2OCC(O)C(O)C2O)cc(=O)n1C` (stereo not drawn), the outcome was inactive.

For `O=[N+]([O-])c1cc(Cl)ccc1S(=O)(=O)N1CCCc2cc(Cl)ccc21`, the EC50 is over 200 µM and the half-maximal inhibitory concentration (IC50) was found to be 30.2 µM.

For `CCOC(=O)C1(c2ccccc2)CCN(CC(=O)c2ccccc2)CC1`, the EC50 is over 102 µM and the IC50 was 56.2 µM.

With `O=C(OCc1ccccc1)N(CCCCN(CCCNCc1ccccc1)C(=O)OCc1ccccc1)CCCNCc1ccccc1`, the EC50 was over 2 µM and the IC50 was determined as 0.871 µM.

Take `CC(=O)C1CCN(c2ccccc2)C1` (stereo not drawn): the result was inactive.

Consider `Cc1[nH]c2ccccc2c1C(c1c(C)[nH]c2ccccc12)c1c(C)[nH]c2ccccc12`, for which the EC50 is 0.0631 µM and the IC50 was found to be 58.9 µM.

Regarding `O=C1CCSC(=O)N1c1ccccc1`, the EC50 is over 200 µM and the IC50 is over 200 µM.

Regarding `COc1ccccc1N1C(=O)/C(=C/c2ccc(N(CCC#N)CCC#N)cc2C)N=C1c1cc([N+](=O)[O-])ccc1Cl`, the outcome was inactive.

With `COC1=C(C)C(=O)c2nc(COC(C)=O)ccc2C1=O`, the outcome was inactive.

Turning to `CCOC(=O)/C(=C/c1ccco1)P(=O)(OCC)OCC`, the EC50 was over 832 µM and the IC50 was determined as 490 µM.

For `Cc1cc(S(=O)(=O)Nc2n[nH]c(Nc3ccccc3)n2)c(S)cc1Cl`, the 50% effective concentration (EC50) was 170 µM and the IC50 stood at 275 µM.

In the case of `C[C@]12CC[C@@H]3c4ccc(OC(=O)c5ccccc5)cc4CC[C@H]3[C@@H]1CCC2OC(=O)c1cccc2c(=O)c3ccccc3[nH]c12` (stereo partly drawn), the EC50 is over 151 µM and the IC50 came to 7.94 µM.

With `CCN(CC)c1ccc(N=C2C=C(Cl)C(=O)c3ncccc32)c(C)c1`, the result was inactive.

In the case of `Oc1ccc(Cc2nccc3cc(O)c(O)cc23)cc1O`, the EC50 was over 200 µM and the IC50 came to 29.5 µM.

As to `O=c1c2ccc(Cl)cc2oc2c(CNc3ccc(S(=O)(=O)Nc4nccs4)cc3)cccc12`, the EC50 was over 151 µM and the half-maximal inhibitory concentration (IC50) is over 151 µM.

For `Cc1[nH]n(C(=O)c2ccccc2O)c(=O)c1/C=C1\C(=O)C=Cc2ccccc21`, the EC50 is over 19.5 µM and the IC50 was 0.398 µM.

On to `Cn1cnc([N+](=O)[O-])c1Sc1nnc(C(F)(F)F)n1C`, for which the EC50 is over 813 µM and the IC50 stood at 4.27 µM.

As for `COc1ccc(C2(OC)Oc3ccccc3C(=O)C2(O)OC)cc1OC` (stereo not drawn), the EC50 is over 200 µM and the 50% inhibitory concentration (IC50) stood at 11.5 µM.

In the case of `Clc1ccc(OCc2nnc(CCCCCCCCc3nnc(COc4ccc(Cl)cc4)n3Nc3ccccc3)n2Nc2ccccc2)cc1`, the result was inactive.
